Results as given in patent US8178506B2, “Oligomeric compounds and compositions for use in modulation of small non-coding RNAs” (Regulus Therapeutics Inc., priority 2003, dated 2012).
In the oligonucleotide strings, read from the 5' end, every base follows the letter of its sugar. An asterisk marks phosphorothioate; unmarked linkages are phosphodiester. Other units and linkages are bracketed, terminal groups are in braces. A string of capitals states the bases alone. e = 2'-O-(2-methoxyethyl) (MOE); [5mC] = 5-methylcytosine

Legend:
Assay type in all cases: cell-based, human
PPARγ = PPARγ mRNA expression in adipocytes (real-time PCR)
Glut4 = Glut4 mRNA expression in adipocytes (real-time PCR)
adipocytes = assay: Triglyceride accumulation assay in adipocytes
HSL = HSL mRNA expression in adipocytes (real-time PCR)
aP2 = aP2 mRNA expression in adipocytes (real-time PCR); settings: for aP2 mRNA: Table 75
[1] = Table 17, differentiating adipocytes, control = treatment with ISIS 342673
[2] = differentiating adipocytes transfected with oligomeric compound, Table 75
[3] = differentiating adipocytes transfected with oligomeric compound

Substance | PPAR gamma mRNA (PPARγ; [1]) | PPAR gamma mRNA (PPARγ; [2]) | GLUT4 mRNA (Glut4; [1]) | GLUT4 mRNA (Glut4; [2]) | TG (triglyceride accumulation) (adipocytes; [1]) | TG (triglyceride accumulation) (adipocytes; [2]) | HSL mRNA (HSL; [1]) | HSL mRNA (HSL; [2]) | AP2 mRNA (aP2; [1]) | aP2 mRNA (aP2; [3]) | PPAR gamma mRNA (PPARγ; [3]) | GLUT4 mRNA (Glut4; [3]) | TG (triglyceride accumulation) (adipocytes; [3]) | HSL mRNA (HSL; [3]) | AP2 mRNA (aP2; [3])
328116 (antisense e[5mC]*eA*eA*eA*eA*eT*eT*eG*e[5mC]*eA*eA*eG*e[5mC]*eA*eA*eA*eT*eT*eG*e[5mC]*eA) [compound 328116] | 78.4 percentage of control | 95 percentage of untreated control (UTC) | 75.2 percentage of control | 105 percentage of untreated control (UTC) | 82.1 percentage of control | 107 percentage of untreated control (UTC) | 75.8 percentage of control | 91 percentage of untreated control (UTC) | 87.7 percentage of control | 99 percentage of untreated control (UTC) |  |  |  |  | 
328118 (antisense eT*eA*eT*eT*eA*eT*e[5mC]*eA*eG*e[5mC]*eA*eT*e[5mC]*eT*eG*e[5mC]*eT*eT*eG*e[5mC]*eA) [compound 328118] | 80.2 percentage of control | 72 percentage of untreated control (UTC) | 76.6 percentage of control | 57 percentage of untreated control (UTC) | 69.3 percentage of control | 69 percentage of untreated control (UTC) | 85.3 percentage of control | 67 percentage of untreated control (UTC) | 92.7 percentage of control | 74 percentage of untreated control (UTC) |  |  |  |  | 
328120 (antisense eA*eA*eG*eA*eA*eG*eG*eA*eA*eG*eG*eA*eG*eG*eG*eA*eA*eA*eG*e[5mC]*eA) [compound 328120] | 70.5 percentage of control | 73 percentage of untreated control (UTC) | 94.8 percentage of control | 68 percentage of untreated control (UTC) | 82.7 percentage of control | 80 percentage of untreated control (UTC) | 77.7 percentage of control | 67 percentage of untreated control (UTC) | 81.0 percentage of control | 80 percentage of untreated control (UTC) |  |  |  |  | 
328121 (antisense eA*eT*eG*eA*e[5mC]*eT*eA*e[5mC]*eA*eA*eG*eT*eT*eT*eA*eT*eG*eG*e[5mC]*e[5mC]*eA) [compound 328121] | 103.6 percentage of control | 105 percentage of untreated control (UTC) | 140.8 percentage of control | 115 percentage of untreated control (UTC) | 134.8 percentage of control | 119 percentage of untreated control (UTC) | 126.0 percentage of control | 110 percentage of untreated control (UTC) | 127.0 percentage of control | 119 percentage of untreated control (UTC) |  |  |  |  | 
328122 (antisense e[5mC]*eA*eA*eA*eA*e[5mC]*eA*eT*eA*eA*eA*eA*eA*eT*e[5mC]*e[5mC]*eT*eT*eG*e[5mC]*eA) [compound 328122] | 77.8 percentage of control | 103 percentage of untreated control (UTC) | 85.9 percentage of control | 91 percentage of untreated control (UTC) | 78.9 percentage of control | 97 percentage of untreated control (UTC) | 72.7 percentage of control | 89 percentage of untreated control (UTC) | 79.3 percentage of control | 99 percentage of untreated control (UTC) |  |  |  |  | 
328124 (antisense eA*eG*e[5mC]*eA*eG*eG*eT*eG*eA*eA*eG*eG*e[5mC]*eA*e[5mC]*e[5mC]*eT*eG*eG*e[5mC]*eT) [compound 328124] | 90.4 percentage of control | 92 percentage of untreated control (UTC) | 122.7 percentage of control | 105 percentage of untreated control (UTC) | 99.1 percentage of control | 108 percentage of untreated control (UTC) | 103.6 percentage of control | 96 percentage of untreated control (UTC) | 101.8 percentage of control | 118 percentage of untreated control (UTC) |  |  |  |  | 
328126 (antisense e[5mC]*e[5mC]*eA*eA*eG*eT*eG*eT*eT*eA*eG*eA*eG*e[5mC]*eA*eA*eG*eA*eT*e[5mC]*eA) [compound 328126] | 75.0 percentage of control | 98 percentage of untreated control (UTC) | 100.7 percentage of control | 107 percentage of untreated control (UTC) | 98.9 percentage of control | 108 percentage of untreated control (UTC) | 83.2 percentage of control | 135 percentage of untreated control (UTC) | 90.9 percentage of control | 120 percentage of untreated control (UTC) |  |  |  |  | 
328127 (antisense eA*eA*e[5mC]*eG*eA*eT*eA*eA*eA*eA*e[5mC]*eA*eT*eA*e[5mC]*eT*eT*eG*eT*e[5mC]*eA) [compound 328127] | 77.6 percentage of control | 85 percentage of untreated control (UTC) | 80.8 percentage of control | 75 percentage of untreated control (UTC) | 74.5 percentage of control | 81 percentage of untreated control (UTC) | 89.7 percentage of control | 93 percentage of untreated control (UTC) | 86.9 percentage of control | 95 percentage of untreated control (UTC) |  |  |  |  | 
328128 (antisense eA*eG*eT*eA*eA*e[5mC]*eT*eT*e[5mC]*eT*eT*eG*e[5mC]*eA*eG*eT*eT*eG*eG*eA) [compound 328128] | 84.0 percentage of control | 86 percentage of untreated control (UTC) | 101.9 percentage of control | 73 percentage of untreated control (UTC) | 98.7 percentage of control | 61 percentage of untreated control (UTC) | 94.1 percentage of control | 72 percentage of untreated control (UTC) | 100.7 percentage of control | 90 percentage of untreated control (UTC) |  |  |  |  | 
328130 (antisense eA*e[5mC]*e[5mC]*eT*e[5mC]*eA*eG*eG*eT*eG*eG*eT*eT*eG*eA*eA*eG*eG*eA*eG*eA) [compound 328130] | 99.4 percentage of control | 77 percentage of untreated control (UTC) | 83.8 percentage of control | 55 percentage of untreated control (UTC) | 122.4 percentage of control | 91 percentage of untreated control (UTC) | 76.5 percentage of control | 64 percentage of untreated control (UTC) | 86.6 percentage of control | 72 percentage of untreated control (UTC) |  |  |  |  | 
328131 (antisense eA*eT*eA*eT*eG*eT*e[5mC]*eA*eT*eA*eT*e[5mC]*eA*eA*eA*e[5mC]*eT*e[5mC]*e[5mC]*eT*eA) [compound 328131] | 88.2 percentage of control | 55 percentage of untreated control (UTC) | 103.6 percentage of control | 56 percentage of untreated control (UTC) | 89.1 percentage of control | 74 percentage of untreated control (UTC) | 81.8 percentage of control | 51 percentage of untreated control (UTC) | 95.4 percentage of control | 63 percentage of untreated control (UTC) |  |  |  |  | 
328132 (antisense eG*eT*eG*eA*eG*eA*eG*eT*eA*eG*e[5mC]*eA*eT*eG*eT*eT*eT*eG*eT*e[5mC]*eT) [compound 328132] | 90.0 percentage of control |  | 72.1 percentage of control |  | 114.1 percentage of control |  | 73.7 percentage of control |  | 90.2 percentage of control |  | 94 percentage of untreated control (UTC) | 67 percentage of untreated control (UTC) | 120 percentage of untreated control (UTC) | 89 percentage of untreated control (UTC) | 81 percentage of untreated control (UTC)
328134 (eA*eA*eT*eT*eG*eG*eA*e[5mC]*eA*eA*eA*eG*eT*eG*e[5mC]*e[5mC]*eT*eT*eT*e[5mC]*eA; anti-miR) [compound 328134] | 78.4 percentage of control | 86 percentage of untreated control (UTC) | 88.3 percentage of control | 109 percentage of untreated control (UTC) | 85.7 percentage of control | 107 percentage of untreated control (UTC) | 74.7 percentage of control | 109 percentage of untreated control (UTC) | 80.1 percentage of control | 97 percentage of untreated control (UTC) |  |  |  |  | 
